Source: patent publication US20250115581A1, “SUBSTITUTED PIPERIDINES AS CK1A DEGRADERS” (Monte Rosa Therapeutics, Inc., priority 2022, published 2025)

Legend:
[1] = target: T1, CK1α (Homo sapiens, UniProt P48729+Q96SW2); assay: CK1α NanoBit Assay (HiBiT-tagged CSNK1A1 in HEK293 cells, luminescence); assay type: cell-based; conditions: 24 h
T1 construct: HEK293 clonal lines with CRISPR KI HiBiT tag on CSNK1A1; host or cells: HEK293 clonal line, CRISPR knock-in HiBiT at the CSNK1A1 locus, stably expressing LgBiT
Summary of the method: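 HEK293 with endogenous HiBiT-tagged CSNK1A1 and stable LgBiT, live-cell Endurazine substrate; compound added at 10 or 30 μM final top concentration after 16 h plating, then 24 h at 37 °C. Luminescence normalised to plate controls; DC50 by 3-parameter logistic fit, hill slope 1.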

[2] = target: CRBN/DDB1 (Homo sapiens, UniProt Q96SW2); assay: HTRF binding assay (displacement of Cy5-thalidomide probe from CRBN/DDB1); conditions: CRBN/DDB1 2.5 nM, Cy5-Thalidomide 100 nM, 30 min; geometric mean; read-out: HTRF_Thali_Disp_DR_geo_IC50
Summary of the method: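 HTRF displacement of Cy5-thalidomide probe (100 nM) from His-tagged CRBN/DDB1 (2.5 nM) with anti-His terbium cryptate, in HEPES/NaCl/TCEP/EDTA/Tween20 buffer; 10-point 1:3 series, 30 min at ambient temperature. 665/620 nm ratio fitted 4-parameter logistic for IC50; Ki via Cheng-Prusoff.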

[3] = tested on: SKCO1; assay: Growth inhibition, CyQUANT Direct Cell Proliferation Assay, SKCO1; assay type: cell-based; conditions: Homo sapiens, SK-CO-1; SKCO1 cells, 120 to 168 hours
Protocol: (§1) SKCO1, LS180, and LS174T cell lines were purchased from ATCC. CW2 cell line was purchased from Riken. GP2D cell line was purchased from Sigma/ECACC. All cell lines were cultured in manufacturer's recommended media at 37° C., 5% CO2. Briefly, cells were suspended in 200 μL of media and seeded at 300 to 1,800 cells per well in tissue culture treated 96-well plates with black walls and clear bottom. Plates were incubated overnight and initial (TO) read was performed the following day using CyQUANT Direct Cell Proliferation Assay Kit (Thermo Fisher Scientific) according to manufacturer's protocol. All compounds were solubilized in DMSO and prepared at 3-fold serial dilution, using 9 points starting at 30 μM as highest concentration, administered to cells and incubated for 120 to 168 hours, at which point CyQUANT assay measurement was performed using Acumen Cellista instrument (Ex/Em 480/520 nm). Media-only wells were used as blank, and 0.3% DMSO was used as DMSO-treated cell control. Growth inhibition (percent response) was calculated using the following formula in Excel: “=if ([Compound treated Day N]>[Untreated Day 0, AVG], ([Compound treated Day N]− [Untreated Day 0, AVG])/([Untreated Day N]−[Untreated Day 0, AVG])*100, ([Compound Treated Day N]−[Untreated Day 0, AVG])/([Untreated Day 0, AVG])*100)”. GI50 is the response corresponding to the 50% of untreated control.
(§2) GI50 data are reported in Tables 4a, 4b, 4c, 4d, and 4e for compounds in Table 1. In Tables 4a, 4b, 4c, 4d, and 4e below, According to the code, A represents a GI50 value of ≤0.1 μM, B represents a GI50 value >0.1 μM and ≤1 μM, C represents an GI50 value >1 μM.

[4] = tested on: CW2; assay: Growth inhibition, CyQUANT Direct Cell Proliferation Assay, CW2; assay type: cell-based; conditions: Homo sapiens, CW-2; CW2 cells, 120 to 168 hours
Protocol: as §1, §2

[5] = tested on: GP2D; assay: Growth inhibition, CyQUANT Direct Cell Proliferation Assay, GP2D; assay type: cell-based; conditions: GP2D cells, 120 to 168 hours
Protocol: as §1, §2

[6] = tested on: LS180; assay: Growth inhibition, CyQUANT Direct Cell Proliferation Assay, LS180; assay type: cell-based; conditions: Homo sapiens; LS180 cells, 120 to 168 hours
Protocol: as §1, §2

[7] = tested on: LS174T; assay: Growth inhibition, CyQUANT Direct Cell Proliferation Assay, LS174T; assay type: cell-based; conditions: Homo sapiens; LS174T cells, 120 to 168 hours
Protocol: as §1, §2

T1 sequence (P48729 whole entry): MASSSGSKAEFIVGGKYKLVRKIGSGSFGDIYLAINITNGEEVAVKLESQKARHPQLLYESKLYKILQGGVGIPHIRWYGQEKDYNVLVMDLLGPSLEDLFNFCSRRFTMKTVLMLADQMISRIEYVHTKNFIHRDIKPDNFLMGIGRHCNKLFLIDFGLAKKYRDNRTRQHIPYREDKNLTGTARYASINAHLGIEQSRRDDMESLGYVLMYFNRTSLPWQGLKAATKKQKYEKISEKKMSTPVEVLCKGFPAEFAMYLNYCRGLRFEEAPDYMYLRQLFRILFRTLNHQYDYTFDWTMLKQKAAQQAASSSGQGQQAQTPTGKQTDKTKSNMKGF
T1 sequence (Q96SW2 whole entry): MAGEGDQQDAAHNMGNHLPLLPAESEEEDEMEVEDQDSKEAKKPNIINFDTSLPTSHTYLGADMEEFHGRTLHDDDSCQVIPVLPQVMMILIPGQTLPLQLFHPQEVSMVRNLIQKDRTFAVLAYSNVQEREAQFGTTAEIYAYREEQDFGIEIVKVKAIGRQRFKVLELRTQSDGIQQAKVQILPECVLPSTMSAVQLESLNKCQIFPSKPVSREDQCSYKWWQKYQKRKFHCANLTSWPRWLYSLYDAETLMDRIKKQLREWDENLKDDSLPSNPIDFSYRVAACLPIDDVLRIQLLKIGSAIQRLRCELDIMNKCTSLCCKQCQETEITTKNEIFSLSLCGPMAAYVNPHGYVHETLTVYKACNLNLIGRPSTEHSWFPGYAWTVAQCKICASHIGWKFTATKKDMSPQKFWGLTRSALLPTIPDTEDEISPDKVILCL
T1 sequence (Q16531 whole entry partner): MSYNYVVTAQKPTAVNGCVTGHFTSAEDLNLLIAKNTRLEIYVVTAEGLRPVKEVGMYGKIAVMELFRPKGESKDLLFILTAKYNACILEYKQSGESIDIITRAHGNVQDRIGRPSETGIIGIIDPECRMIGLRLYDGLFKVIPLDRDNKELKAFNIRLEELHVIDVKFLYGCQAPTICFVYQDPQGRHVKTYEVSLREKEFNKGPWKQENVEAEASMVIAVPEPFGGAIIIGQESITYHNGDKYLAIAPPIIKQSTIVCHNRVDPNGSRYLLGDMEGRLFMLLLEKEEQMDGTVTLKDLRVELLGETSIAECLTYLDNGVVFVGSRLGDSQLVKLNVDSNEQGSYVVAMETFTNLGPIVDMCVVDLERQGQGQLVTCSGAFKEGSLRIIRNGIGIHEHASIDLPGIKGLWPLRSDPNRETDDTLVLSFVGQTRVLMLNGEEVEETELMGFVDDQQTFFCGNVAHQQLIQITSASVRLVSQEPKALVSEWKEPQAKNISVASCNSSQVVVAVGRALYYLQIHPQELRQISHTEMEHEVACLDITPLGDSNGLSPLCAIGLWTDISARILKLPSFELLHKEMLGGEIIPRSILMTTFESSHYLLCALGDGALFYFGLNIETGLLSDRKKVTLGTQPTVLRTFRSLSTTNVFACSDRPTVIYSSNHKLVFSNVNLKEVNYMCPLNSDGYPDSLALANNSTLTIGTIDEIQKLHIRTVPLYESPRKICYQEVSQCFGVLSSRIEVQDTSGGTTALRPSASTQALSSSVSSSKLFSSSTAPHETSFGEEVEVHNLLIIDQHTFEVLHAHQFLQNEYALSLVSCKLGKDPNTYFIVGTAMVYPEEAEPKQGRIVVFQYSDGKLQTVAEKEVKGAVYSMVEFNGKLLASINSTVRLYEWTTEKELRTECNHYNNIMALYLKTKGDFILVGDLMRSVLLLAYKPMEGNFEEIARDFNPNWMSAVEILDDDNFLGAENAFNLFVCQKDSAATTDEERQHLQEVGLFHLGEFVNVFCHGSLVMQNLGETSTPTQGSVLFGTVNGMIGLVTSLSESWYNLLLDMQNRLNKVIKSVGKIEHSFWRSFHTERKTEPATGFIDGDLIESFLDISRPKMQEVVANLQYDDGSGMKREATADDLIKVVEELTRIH
Sequence of CRBN/DDB1 (Q96SW2 whole entry): as the sequence (Q96SW2 whole entry) above
Sequence of CRBN/DDB1 (Q16531 whole entry partner): as the sequence (Q16531 whole entry partner) above

Row | DC50 [1] [µM] | IC50 [2] [nM] | GI50 [3] [nM] | SMILES | GI50 [4] [nM] | GI50 [5] [nM] | GI50 [6] [nM] | GI50 [7] [nM]
1 | ≤ 0.1 | > 1000 | ≤ 100 | O=C1CCC(N2Cc3cc(N4CCN(c5ccc(C6CC6)cc5)C4=O)ccc3C2=O)C(=O)N1 (stereo not drawn) [Compound 123, 3-(5-(3-(4-cyclopropylphenyl)-2-oxoimidazolidin-1-yl)-1-oxoisoindolin-2-yl)piperidine-2,6-dione] | ≤ 100 | 100 to 1000 | 100 to 1000 | ≤ 100
2 | ≤ 0.1 | 100 to 1000 | 100 to 1000 | O=C1CCC(N2Cc3cc(N4CCN(c5ccc(C(F)(F)F)nc5)C4=O)ccc3C2=O)C(=O)N1 (stereo not drawn) [Compound 126, 3-(1-oxo-5-(2-oxo-3-(6-(trifluoromethyl)pyridin-3-yl)imidazolidin-1-yl)isoindolin-2-yl)piperidine-2,6-dione] | ≤ 100 | 100 to 1000 | 100 to 1000 | 100 to 1000
3 | ≤ 0.1 | 100 to 1000 | ≤ 100 | Cc1ccc(N2CCN(c3ccc4c(c3)CN(C3CCC(=O)NC3=O)C4=O)C2=O)cc1 (stereo not drawn) [Compound 111, 3-(1-oxo-5-(2-oxo-3-(p-tolyl)imidazolidin-1-yl)isoindolin-2-yl) piperidine-2,6-dione] | ≤ 100 | 100 to 1000 | 100 to 1000 | 100 to 1000
4 | ≤ 0.1 | 100 to 1000 | 100 to 1000 | O=C1CCC(N2Cc3cc(N4CCN(c5ccc(C(F)F)nc5)C4=O)ccc3C2=O)C(=O)N1 (stereo not drawn) [Compound 124, 3-(5-(3-(6-(difluoromethyl)pyridin-3-yl)-2-oxoimidazolidin-1-yl)-1-oxoisoindolin-2-yl)piperidine-2,6-dione] | ≤ 100 | 100 to 1000 | 100 to 1000 | ≤ 100
5 | ≤ 0.1 | 100 to 1000 | 100 to 1000 | C[C@@H]1CN(c2ccc3c(c2)CN(C2CCC(=O)NC2=O)C3=O)C(=O)N1c1ccc(C2CC2)nc1 (stereo partly drawn) [Compound 137, 3-(5-((R)-3-(6-cyclopropylpyridin-3-yl)-4-methyl-2-oxoimidazolidin-1-yl)-1-oxoisoindolin-2-yl)piperidine-2,6-dione] | 100 to 1000 | > 1000 | > 1000 | 100 to 1000
6 | 0.1 to 1 | 100 to 1000 | – | O=C1CCC(N2Cc3cc(N4CCN(C5C6CCCC65)C4=O)ccc3C2=O)C(=O)N1 (stereo not drawn) [Compound 160, 3-(5-(3-(bicyclo[3.1.0]hexan-6-yl)-2-oxoimidazolidin-1-yl)-1-oxoisoindolin-2-yl)piperidine-2,6-dione] | – | – | – | –
7 | > 1 | > 1000 | – | C[C@@H]1CN(c2ccc3c(c2)CN(C2CCC(=O)NC2=O)C3=O)C(=O)N1c1ccncn1 (stereo partly drawn) [Compound 180, 3-(5-((R)-4-methyl-2-oxo-3-(pyrimidin-4-yl)imidazolidin-1-yl)-1-oxoisoindolin-2-yl)piperidine-2,6-dione] | – | – | – | –
8 | ≤ 0.1 | 100 to 1000 | – | CC(C)c1cccc(N2CCN(c3ccc4c(c3)CN(C3CCC(=O)NC3=O)C4=O)C2=O)c1 (stereo not drawn) [Compound 119, 3-(5-(3-(3-isopropylphenyl)-2-oxoimidazolidin-1-yl)-1-oxoisoindolin-2-yl)piperidine-2,6-dione] | – | – | – | –
9 | ≤ 0.1 | 100 to 1000 | – | COCc1cccc(N2C(=O)N(c3ccc4c(c3)CN(C3CCC(=O)NC3=O)C4=O)C[C@H]2C)c1 (stereo partly drawn) [Compound 149, 3-(5-((R)-3-(3-(methoxymethyl)phenyl)-4-methyl-2-oxoimidazolidin-1-yl)-1-oxoisoindolin-2-yl)piperidine-2,6-dione] | – | – | – | –
10 | 0.1 to 1 | 100 to 1000 | – | Cc1ccc(N2C(=O)N(c3ccc4c(c3)CN(C3CCC(=O)NC3=O)C4=O)C[C@@H]2C)cn1 (stereo partly drawn) [Compound 155, 3-(5-((S)-4-methyl-3-(6-methylpyridin-3-yl)-2-oxoimidazolidin-1-yl)-1-oxoisoindolin-2-yl)piperidine-2,6-dione] | – | – | – | –
11 | 0.1 to 1 | 100 to 1000 | – | N#Cc1ccc(N2CCN(c3ccc4c(c3)CN(C3CCC(=O)NC3=O)C4=O)C2=O)cc1 (stereo not drawn) [Compound 115] | – | – | – | –
12 | ≤ 0.1 | 100 to 1000 | – | O=C1CCC(N2Cc3cc(N4CCN(c5cccc(Cl)c5)C4=O)ccc3C2=O)C(=O)N1 (stereo not drawn) [Compound 118, 3-(5-(3-(3-chlorophenyl)-2-oxoimidazolidin-1-yl)-1-oxoisoindolin-2-yl)piperidine-2,6-dione] | – | – | – | –
13 | 0.1 to 1 | 100 to 1000 | – | Cc1ccccc1N1C(=O)N(c2ccc3c(c2)CN(C2CCC(=O)NC2=O)C3=O)C[C@H]1C (stereo partly drawn) [Compound 167, 3-(5-((R)-4-methyl-2-oxo-3-(o-tolyl)imidazolidin-1-yl)-1-oxoisoindolin-2-yl)piperidine-2,6-dione] | – | – | – | –
14 | > 1 | ≤ 100 | – | CC(C)C(=O)c1ccc(N2CCN(c3ccc4c(c3)CN(C3CCC(=O)NC3=O)C4=O)C2=O)cc1 (stereo not drawn) [Compound 181, 3-(5-(3-(4-isobutyrylphenyl)-2-oxoimidazolidin-1-yl)-1-oxoisoindolin-2-yl)piperidine-2,6-dione] | – | – | – | –
15 | > 1 | 100 to 1000 | – | O=C1CCC(N2Cc3cc(N4CCN(C(c5ccccc5)C(F)(F)F)C4=O)ccc3C2=O)C(=O)N1 (stereo not drawn) [Compound 179, 3-(1-oxo-5-(2-oxo-3-(2,2,2-trifluoro-1-phenylethyl)imidazolidin-1-yl)isoindolin-2-yl)piperidine-2,6-dione] | – | – | – | –
16 | > 1 | 100 to 1000 | – | O=C1CCC(N2Cc3cc(N4CCN(C5CN(c6ccccn6)C5)C4=O)ccc3C2=O)C(=O)N1 (stereo not drawn) [Compound 184, 3-(1-oxo-5-(2-oxo-3-(1-(pyridin-2-yl)azetidin-3-yl)imidazolidin-1-yl)isoindolin-2-yl)piperidine-2,6-dione] | – | – | – | –
17 | ≤ 0.1 | 100 to 1000 | – | COCc1cccc(N2CCN(c3ccc4c(c3)CN(C3CCC(=O)NC3=O)C4=O)C2=O)c1 (stereo not drawn) [Compound 136, 3-(5-(3-(3-(methoxymethyl)phenyl)-2-oxoimidazolidin-1-yl)-1-oxoisoindolin-2-yl)piperidine-2,6-dione] | – | – | – | –
18 | ≤ 0.1 | 100 to 1000 | – | O=C1CCC(N2Cc3cc(N4CCN(c5ccc(C6COC6)cc5)C4=O)ccc3C2=O)C(=O)N1 (stereo not drawn) [Compound 146, 3-(5-(3-(4-(oxetan-3-yl)phenyl)-2-oxoimidazolidin-1-yl)-1-oxoisoindolin-2-yl)piperidine-2,6-dione] | – | – | – | –
19 | 0.1 to 1 | 100 to 1000 | – | COC(C)c1ccccc1N1CCN(c2ccc3c(c2)CN(C2CCC(=O)NC2=O)C3=O)C1=O (stereo not drawn) [Compound 169, 3-(5-(3-(2-(1-methoxyethyl)phenyl)-2-oxoimidazolidin-1-yl)-1-oxoisoindolin-2-yl)piperidine-2,6-dione] | – | – | – | –
20 | 0.1 to 1 | 100 to 1000 | – | O=C1CCC(N2Cc3cc(N4CCN(C5CC6(COC6)C5)C4=O)ccc3C2=O)C(=O)N1 (stereo not drawn) [Compound 171, 3-(1-oxo-5-(2-oxo-3-(2-oxaspiro[3.3]heptan-6-yl)imidazolidin-1-yl)isoindolin-2-yl)piperidine-2,6-dione] | – | – | – | –
21 | 0.1 to 1 | 100 to 1000 | – | O=C1CCC(N2Cc3cc(N4C[C@@H](C(F)(F)F)N(c5ccccc5)C4=O)ccc3C2=O)C(=O)N1 (stereo partly drawn) [Compound 106, 3-(1-oxo-5-((S)-2-oxo-3-phenyl-4-(trifluoromethyl)imidazolidin-1-yl)isoindolin-2-yl)piperidine-2,6-dione] | – | – | – | –
22 | ≤ 0.1 | > 1000 | – | O=C1CCC(N2Cc3cc(N4CCN(c5ccc(C6CCC6)cc5)C4=O)ccc3C2=O)C(=O)N1 (stereo not drawn) [Compound 131, 3-(5-(3-(4-cyclobutylphenyl)-2-oxoimidazolidin-1-yl)-1-oxoisoindolin-2-yl)piperidine-2,6-dione] | – | – | – | –
